In patent US8580842B2, “Heteroaryl-substituted 1,3-dihydroindol-2-one derivatives and medicaments containing them” (Abbott GmbH & Co. KG, priority 2003, dated 2013):
pKi: −log10 of the molar value. Counter-ions that a name gives are not always drawn.

These molecules were tested against T1, human V1b receptors (Homo sapiens, UniProt P47901) (assay: Vasopressin V1b receptor binding assay). Conditions: membranes from CHO-K1 cells expressing human V1b receptors, displacement of 1.5 nM 3H-AVP; read-out: Binding affinity for the vasopressin V1b receptor.
T1 construct: expressed in transfected cells; host or cells: CHO-K1 (membrane preparation V1b-3H2)
T1 sequence (P47901 1-424): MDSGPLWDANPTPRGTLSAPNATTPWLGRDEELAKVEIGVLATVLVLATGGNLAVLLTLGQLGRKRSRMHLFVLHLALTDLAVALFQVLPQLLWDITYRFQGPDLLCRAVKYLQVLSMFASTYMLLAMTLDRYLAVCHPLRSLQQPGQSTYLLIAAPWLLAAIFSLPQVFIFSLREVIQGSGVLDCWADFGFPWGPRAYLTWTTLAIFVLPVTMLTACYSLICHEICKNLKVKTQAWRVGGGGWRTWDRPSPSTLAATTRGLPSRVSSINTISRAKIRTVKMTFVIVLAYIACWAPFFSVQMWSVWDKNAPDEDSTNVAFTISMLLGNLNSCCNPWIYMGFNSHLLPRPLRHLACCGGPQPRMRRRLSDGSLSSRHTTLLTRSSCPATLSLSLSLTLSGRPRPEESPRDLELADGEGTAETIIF
Protocol: Vasopressin V1b Receptor Binding Assay
The binding of the compounds of this invention to the vasopressin V1b receptor was determined with the following assay:
Compounds were dissolved in a concentration of 10^−2 M or 10^−3 M in DMSO. Further dilutions were performed with water.
The procedure for the binding assay was based on the method of Tahara et al. (Tahara A et al., Brit. J. Pharmacol. 125, 1463-1470 (1998)). Assays (0.250 ml) consisted of membranes (58 μg protein) from CHO-K1 cells permanently expressing human V1b receptors (preparation V1b-3H2, containing protease inhibitors, Roche complete Mini #1836170), 1.5 nM ^3H-AVP (8-Arg-vasopressin, NET 800) in incubation buffer (total binding) and different concentrations of test compound (displacement). Non-specific binding was defined with 10^−6 M AVP. Assays were performed in triplicate.
Incubation buffer: 50 mM Tris, 10 mM MgCl2, 0.1% BSA adjusted to pH 7.4 with HCl.
After incubation, 60 min at room temperature, bound and free radioligand was separated by filtration under vacuum through Whatman GF/B glass fibre mats using a Skatron cell harvester 7000.
Liquid scintillation counting was performed in beta-counters, Tricarb model 2000 or 2200CA (Packard). Dpm were calculated by a programme with standardisation using a standard quench series.
Evaluation of binding parameters was performed by non-linear regression analysis with SAS. The strategy of this program is similar to the program LIGAND described by Munson and Rodbard (Munson PJ and Rodbard D, Analytical Biochem 107, 220-239 (1980)).
`COc1ccc(S(=O)(=O)N2C(=O)C(c3cccnc3OC)(N3CC=C[C@H]3C(=O)N(C)C)c3cc(Cl)ccc32)c(OC)c1` (mixture of isomers) [Example 247, (S)-1-[5-Chloro-1-(2,4-dimethoxy-benzenesulfonyl)-3-(2-methoxy-pyridin-3-yl)-2-oxo-2,3-dihydro-1H-indol-3-yl]-2,5-dihydro-1H-pyrrole-2-carboxylic acid dimethylamide] showed a pKi greater than 7.30.
`COC(=O)[C@@H]1CCCN1C1(c2cccnc2OC)C(=O)N(S(=O)(=O)c2ccc(OC)cc2OC)c2ccc(Cl)cc21` (mixture of isomers) [Example 248, (S)-1-[5-Chloro-1-(2,4-dimethoxy-benzenesulfonyl)-3-(2-methoxy-pyridin-3-yl)-2-oxo-2,3-dihydro-1H-indol-3-yl]-pyrrolidine-2-carboxylic acid methyl ester] was tested, and the pKi was greater than 7.30.
For `COc1ccc(S(=O)(=O)N2C(=O)C(c3nc4ccccc4s3)(N3C[C@H](O)C[C@H]3C(=O)N(C)C)c3cc(Cl)ccc32)c(OC)c1` (single isomer, unassigned) [Example 2], the pKi was greater than 7.30.
`COc1ccc(S(=O)(=O)N2C(=O)C(c3cnc(OC)nc3OC)(N3C[C@H](O)C[C@H]3C(=O)N(C)C)c3cc(Cl)ccc32)c(OC)c1` (single isomer, unassigned) [Example 3] showed a pKi greater than 7.30.
`COc1ccc(S(=O)(=O)N2C(=O)C(c3cccnc3OC)(N3C[C@H](O)C[C@H]3C(=O)N(C)C)c3cc(Cl)ccc32)c(OC)c1` (single isomer, unassigned) [Example 6] showed a pKi of 6.30 to 7.30.
With `COc1ccc(S(=O)(=O)N2C(=O)C(c3ncccc3OC)(N3C[C@H](O)C[C@H]3C(=O)N(C)C)c3cc(Cl)ccc32)c(OC)c1` (single isomer, unassigned) [Example 9] the pKi was greater than 7.30.
Work on `COc1ccc(S(=O)(=O)N2C(=O)C(c3cnccc3OC)(N3C[C@H](O)C[C@H]3C(=O)N(C)C)c3cc(Cl)ccc32)c(OC)c1` (single isomer, unassigned) [Example 10] yielded a pKi greater than 7.30.
Work on `COc1ccc(S(=O)(=O)N2C(=O)C(c3nccnc3OC)(N3C[C@H](O)C[C@H]3C(=O)N(C)C)c3cc(Cl)ccc32)c(OC)c1` (single isomer, unassigned) [Example 13] yielded a pKi greater than 7.30.
`COc1ccccc1C1(N2C[C@H](O)C[C@H]2C(=O)N(C)C)C(=O)N(S(=O)(=O)c2cccc3cccnc23)c2ccc(Cl)cc21` (single isomer, unassigned) [Example 28] gave a pKi greater than 7.30.
`COc1ccccc1C1(N2C[C@H](O)C[C@H]2C(=O)N(C)C)C(=O)N(S(=O)(=O)c2ccc(Cl)s2)c2ccc(Cl)cc21` (single isomer, unassigned) [Example 31] gave a pKi greater than 7.30.
In the case of `COc1ccccc1C1(N2C[C@H](O)C[C@H]2C(=O)N(C)C)C(=O)N(S(=O)(=O)c2sc(Cl)cc2Br)c2ccc(Cl)cc21` (single isomer, unassigned) [Example 32], the pKi was 6.30 to 7.30.
Molecule `COc1ccccc1C1(N2C[C@H](O)C[C@H]2C(=O)N(C)C)C(=O)N(S(=O)(=O)c2ccccn2)c2ccc(Cl)cc21` (single isomer, unassigned) [Example 47] has a pKi greater than 7.30.
`COc1ccccc1C1(N2C[C@H](O)C[C@H]2C(=O)N(C)C)C(=O)N(S(=O)(=O)c2ccc(Br)cn2)c2ccc(Cl)cc21` (single isomer, unassigned) [Example 48] gave a pKi greater than 7.30.
`COc1ccccc1C1(N2C[C@H](O)C[C@H]2C(=O)N(C)C)C(=O)N(S(=O)(=O)c2ccc(C)cn2)c2ccc(Cl)cc21` (single isomer, unassigned) [Example 51] gave a pKi greater than 7.30.
`COc1ccccc1C1(N2C[C@H](O)C[C@H]2C(=O)N(C)C)C(=O)N(S(=O)(=O)c2ccc(Cl)cn2)c2ccc(Cl)cc21` (single isomer, unassigned) [Example 52] was tested, and the pKi was greater than 7.30.
Work on `COc1ccccc1C1(N2C[C@H](O)C[C@H]2C(=O)N(C)C)C(=O)N(S(=O)(=O)c2ncc(Br)cc2C)c2ccc(Cl)cc21` (single isomer, unassigned) [Example 53] yielded a pKi greater than 7.30.
`COc1ccccc1C1(N2C[C@H](O)C[C@H]2C(=O)N(C)C)C(=O)N(S(=O)(=O)c2ccc(N3CCOCC3)nc2)c2ccc(Cl)cc21` (single isomer, unassigned) [Example 56] gave a pKi greater than 7.30.
For `COc1ccc(S(=O)(=O)N2C(=O)C(N[C@@H](C)C(=O)N(C)C)(c3cccnc3OC)c3cc(Cl)ccc32)c(OC)c1` (single isomer, unassigned) [Example 221], the pKi was greater than 7.30.
`COc1ccc(S(=O)(=O)N2C(=O)C(c3ncccc3C)(N3C[C@H](O)C[C@H]3C(=O)N(C)C)c3cc(Cl)ccc32)c(OC)c1` (single isomer, unassigned) [Example 222] was tested, and the pKi was greater than 7.30.
With `COc1ccc(S(=O)(=O)N2C(=O)C(c3cccnc3OC)(N3C[C@H](O)C[C@H]3C(=O)N(C)C)c3ccccc32)c(OC)c1` (single isomer, unassigned) [Example 225] the pKi was 6.30 to 7.30.
Molecule `COc1ccc(S(=O)(=O)N2C(=O)C(c3cccnc3OC)(N3CCC[C@H]3C(=O)N(C)C)c3ccccc32)c(OC)c1` (single isomer, unassigned) [Example 226] has a pKi of 6.30 to 7.30.
`COc1ccc(S(=O)(=O)N2C(=O)C(c3cccnc3OC)(N3CCC[C@H]3C(=O)N(C)C)c3cc(Cl)ccc32)c(OC)c1` (single isomer, unassigned) [Example 227] gave a pKi greater than 7.30.
`COc1ccc(S(=O)(=O)N2C(=O)C(c3cccnc3OC)(N3C[C@H](O)C[C@H]3C(=O)N(C)C)c3cc(OC)ccc32)c(OC)c1` (single isomer, unassigned) [Example 230, fumarate] gave a pKi greater than 7.30.
Work on `COc1ccc(S(=O)(=O)N2C(=O)C(c3cccnc3OC)(N3C[C@H](O)C[C@H]3C(=O)N(C)C)c3cc(C#N)ccc32)c(OC)c1` (single isomer, unassigned) [Example 232] yielded a pKi greater than 7.30.
`COc1ccc(S(=O)(=O)N2C(=O)C(c3ccncc3OC)(N3C[C@H](O)C[C@H]3C(=O)N(C)C)c3cc(Cl)ccc32)c(OC)c1` (single isomer, unassigned) [Example 234] was tested, and the pKi was greater than 7.30.
In the case of `COc1ccc(S(=O)(=O)N2C(=O)C(c3cnc(OC)nc3OC)(N3C[C@H](O)C[C@H]3C(=O)N(C)C)c3cc(Cl)ccc32)cc1` (single isomer, unassigned) [Example 236], the pKi was greater than 7.30.
`COc1ccc(S(=O)(=O)N2C(=O)C(c3cccnc3OC)(N3CCCC[C@H]3C(=O)N(C)C)c3cc(Cl)ccc32)c(OC)c1` (single isomer, unassigned) [Example 237] gave a pKi greater than 7.30.
For `COc1ccc(S(=O)(=O)N2C(=O)C(c3ccc(OC)nc3OC)(N3C[C@H](O)C[C@H]3C(=O)N(C)C)c3cc(Cl)ccc32)c(OC)c1` (single isomer, unassigned) [Example 238], the pKi was greater than 7.30.
With `CCOc1ncccc1C1(N2C[C@H](O)C[C@H]2C(=O)N(C)C)C(=O)N(S(=O)(=O)c2ccc(OC)cc2OC)c2ccc(Cl)cc21` (single isomer, unassigned) [Example 239] the pKi was greater than 7.30.
Molecule `COc1ccc(S(=O)(=O)N2C(=O)C(c3cccnc3OC)(N3C[C@H](O)C[C@H]3C(=O)N(C)C)c3cc(Cl)ccc32)cc1` (single isomer, unassigned) [Example 240] has a pKi greater than 7.30.
Molecule `COc1ccccc1S(=O)(=O)N1C(=O)C(c2cccnc2OC)(N2C[C@H](O)C[C@H]2C(=O)N(C)C)c2cc(Cl)ccc21` (single isomer, unassigned) [Example 241] has a pKi of 6.30 to 7.30.
`COc1ccc(S(=O)(=O)N2C(=O)C(c3cccnc3OC)(N3C[C@H](O)C[C@H]3C(=O)N(C)C)c3cc(C#N)ccc32)cc1` (single isomer, unassigned) [Example 242] showed a pKi greater than 7.30.
For `COc1ccc(S(=O)(=O)N2C(=O)C(c3nccnc3OC)(N3C[C@H](O)C[C@H]3C(=O)N(C)C)c3cc(I)ccc32)c(OC)c1` (single isomer, unassigned) [Example 243], the pKi was greater than 7.30.
`COc1ccc(S(=O)(=O)N2C(=O)C(c3cccnc3OC)(N3C[C@H](O)C[C@H]3C(=O)N(C)C)c3cc(OC(F)(F)F)ccc32)c(OC)c1` (single isomer, unassigned) [Example 245] was tested, and the pKi was greater than 7.30.
`COc1ccc(S(=O)(=O)N2C(=O)C(c3cccnc3OC)(N3C[C@H](F)C[C@H]3C(=O)N(C)C)c3cc(Cl)ccc32)c(OC)c1` (single isomer, unassigned) [Example 246] gave a pKi greater than 7.30.
Work on `COc1ccccc1C1(N2C[C@H](O)C[C@H]2C(=O)N(C)C)C(=O)N(S(=O)(=O)c2cc(C)ccn2)c2ccc(Cl)cc21` (single isomer, unassigned) [Example 252] yielded a pKi greater than 7.30.
`COc1ccccc1C1(N2C[C@H](O)C[C@H]2C(=O)N(C)C)C(=O)N(S(=O)(=O)c2cccc(C)n2)c2ccc(Cl)cc21` (single isomer, unassigned) [Example 253] showed a pKi greater than 7.30.
